This experiment concerns P388 leukemia ip, CD2F1 mice, survival T/C. The experiment is described as follows: NCI In Vivo Anticancer Drug Screen. Data for tumor model P388 Leukemia (intraperitoneal) in CD2F1 (CDF1) mice. To be noted: endpoint: median survival time, higher = longer survival. A digest of the protocol: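 Mice carrying the transplanted tumor received test compound or vehicle. Survival was recorded in each group, and the value is the treated-group measurement divided by that of the vehicle-treated control group.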

The mark [1] stands for this setting: dose: 50.0 mg/kg/injection, schedule: Q01DX005 (ip), vehicle: saline with Tween-80.
The mark [2] stands for this setting: dose: 100.0 mg/kg/injection, schedule: Q01DX005 (ip), vehicle: saline with Tween-80.
The mark [3] stands for this setting: dose: 200.0 mg/kg/injection, schedule: Q01DX005 (ip), vehicle: saline with Tween-80.
The mark [4] stands for this setting: dose: 50.0 mg/kg/injection, schedule: Q01DX001 (ip), vehicle: Klucel (hydroxypropylcellulose) (HPC).
Where [5] appears, read: dose: 100.0 mg/kg/injection, schedule: Q01DX001 (ip), vehicle: Klucel (hydroxypropylcellulose) (HPC).
[6] abbreviates: dose: 50.0 mg/kg/injection, schedule: Q01DX009 (ip), vehicle: saline with Tween-80.
Where [7] appears, read: dose: 100.0 mg/kg/injection, schedule: Q01DX009 (ip), vehicle: saline with Tween-80.
[8] abbreviates: dose: 50.0 mg/kg/injection, schedule: Q01DX009 (ip), vehicle: saline.
Where [9] appears, read: dose: 100.0 mg/kg/injection, schedule: Q01DX009 (ip), vehicle: saline.
Setting [10] is: dose: 200.0 mg/kg/injection, schedule: Q01DX009 (ip), vehicle: saline.
The mark [11] stands for this setting: dose: 60.0 mg/kg/injection, schedule: Q01DX005 (ip), vehicle: Klucel (hydroxypropylcellulose) (HPC).
Setting [12] is: dose: 120.0 mg/kg/injection, schedule: Q01DX005 (ip), vehicle: Klucel (hydroxypropylcellulose) (HPC).
Setting [13] is: dose: 50.0 mg/kg/injection, schedule: Q01DX009 (ip), vehicle: Klucel (hydroxypropylcellulose) (HPC).

Where “and” joins values, the source holds several entries; their conditions need not be identical. Equal entries are not always repeated. Inconclusive results and toxic doses are left out. Square brackets hold non-standard residues; d marks the D form. Peptide text beside a SMILES is read from it. * marks the point of attachment. ξ: configuration not given here. Cbz = O=C(OCc1ccccc1)*; ξNva = CCCC(N)C(=O)O

As to `O=C(/C=C/c1cccs1)c1ccc(Nc2ccnc3cc(Cl)ccc23)cc1`, the T/C (dose: 100.0 mg/kg/injection, schedule: Q01DX001 (ip), vehicle: saline with Tween-80) is 94 % of control; the T/C (dose: 200.0 mg/kg/injection, schedule: Q01DX001 (ip), vehicle: saline with Tween-80) was 98 % of control; the T/C (dose: 400.0 mg/kg/injection, schedule: Q01DX001 (ip), vehicle: saline with Tween-80) is 94 % of control.

As for `COC(=O)CC1(O)C=C(C)C(=O)c2ccccc21` (stereo not given), the T/C (dose: 25.0 mg/kg/injection, schedule: Q01DX005 (ip), vehicle: saline with Tween-80) was 100 % of control; the T/C under setting [1] is 101 % of control; the T/C under setting [2] is 100 % of control; the T/C under setting [3] was 100 % of control; the T/C (dose: 400.0 mg/kg/injection, schedule: Q01DX005 (ip), vehicle: saline with Tween-80) is 101 % of control.

On to `CCCN1C=C(C(=O)OCC)C(N)=C(C#N)/C1=C\C=C(/C#N)C(=O)OCC`, for which the T/C reads like this: (dose: 6.25 mg/kg/injection, schedule: Q01DX001 (ip), vehicle: Klucel (hydroxypropylcellulose) (HPC)) 89 % of control; (dose: 12.5 mg/kg/injection, schedule: Q01DX001 (ip), vehicle: Klucel (hydroxypropylcellulose) (HPC)) 87 % of control; (dose: 25.0 mg/kg/injection, schedule: Q01DX001 (ip), vehicle: Klucel (hydroxypropylcellulose) (HPC)) 86 % of control; under setting [4], 88 % of control; under setting [5], 90 % of control.

Regarding `O=C1Nc2ncnc(Cl)c2Cc2ccccc21`, the T/C by setting is: under setting [6], 100 % of control; under setting [7], 104 % of control; (dose: 200.0 mg/kg/injection, schedule: Q01DX009 (ip), vehicle: saline with Tween-80) 104 % of control.

Regarding `NCCSCCN`, the T/C is, setting by setting: under setting [8], 100 % of control; under setting [9], 99 % of control; (dose: 100.0 mg/kg/injection, schedule: Q03DX003 (ip), vehicle: saline) 102 % of control; under setting [10], 105 % of control; (dose: 200.0 mg/kg/injection, schedule: Q03DX003 (ip), vehicle: saline) 105 % of control; (dose: 400.0 mg/kg/injection, schedule: Q03DX003 (ip), vehicle: saline) 92 % of control.

With `CCC(=O)c1cc(-c2cc(C(=O)CC)[nH]n2)n[nH]1`, the T/C reads like this: under setting [11], 98 % of control; under setting [12], 98 % of control.

As for `O=C(OC(Cc1ccccc1)C(=O)O)c1ccc([N+](=O)[O-])cc1` (stereo not given), the T/C under setting [4] was 97 % of control; the T/C under setting [5] is 111 % of control; the T/C (dose: 200.0 mg/kg/injection, schedule: Q01DX001 (ip), vehicle: Klucel (hydroxypropylcellulose) (HPC)) was 109 % of control.

As to `O=C1COc2ccccc2C(=O)C1`, the T/C was 109 % of control under setting [8], 101 % of control under setting [9] and 101 % of control under setting [10].

For `O=C1C2CCN(CC2)C1(CO)CO`, the T/C was 102 % of control under setting [8], 105 % of control under setting [9] and 105 % of control under setting [10].

As to `O=C(O)/C=C/c1ccc([N+](=O)[O-])o1`, the T/C (dose: 25.0 mg/kg/injection, schedule: Q01DX009 (ip), vehicle: Klucel (hydroxypropylcellulose) (HPC)) was 107 % of control and 117 % of control; the T/C under setting [13] is 120 % of control.

Consider `OCC1CC2C=CC1O2` (stereo not given), for which the T/C under setting [1] is 101 % of control, the T/C under setting [2] is 114 % of control and the T/C under setting [3] was 95 % of control.

With `CCCCCCCCCCCCCC[n+]1ccc(C(N)=O)cc1`, the T/C is 113 % of control (dose: 6.25 mg/kg/injection, schedule: Q01DX009 (ip), vehicle: saline with Tween-80); 109 % of control (dose: 12.5 mg/kg/injection, schedule: Q01DX009 (ip), vehicle: saline with Tween-80); 100 % of control (dose: 25.0 mg/kg/injection, schedule: Q01DX009 (ip), vehicle: saline with Tween-80).

As to `COC(=O)C1=CO[C@@H](C)[C@@H]2CN3CCc4c([nH]c5cc(OC)ccc45)[C@@H]3C[C@H]12`, the T/C under setting [1] was 96 % of control and the T/C under setting [2] was 92 % of control.

Take `CC1=CN(C(=O)c2ccccc2)C(C#N)N(C(=O)c2ccccc2)C1C#N` (stereo not given): the T/C under setting [11] was 100 % of control; the T/C under setting [12] was 103 % of control; the T/C (dose: 240.0 mg/kg/injection, schedule: Q01DX005 (ip), vehicle: Klucel (hydroxypropylcellulose) (HPC)) was 102 % of control.

With `CC(=O)NCCSc1nc(-c2ccccc2)c(-c2ccccc2)o1`, the T/C was 95 % of control under setting [13]; 104 % of control (dose: 100.0 mg/kg/injection, schedule: Q01DX009 (ip), vehicle: Klucel (hydroxypropylcellulose) (HPC)); 101 % of control (dose: 200.0 mg/kg/injection, schedule: Q01DX009 (ip), vehicle: Klucel (hydroxypropylcellulose) (HPC)).

For the compound `O=[N+]([O-])c1ccc(C2=Nc3ccccc3N=C(c3ccccc3O)C2)cc1`, the T/C is 100 % of control (dose: 0.93 mg/kg/injection, schedule: Q01DX005 (ip), vehicle: saline with Tween-80); 113 % of control (dose: 1.87 mg/kg/injection, schedule: Q01DX005 (ip), vehicle: saline with Tween-80); 91 % of control and 94 % of control (dose: 3.75 mg/kg/injection, schedule: Q01DX005 (ip), vehicle: saline with Tween-80); 91 % of control (dose: 15.0 mg/kg/injection, schedule: Q01DX005 (ip), vehicle: saline with Tween-80); 90 % of control (dose: 240.0 mg/kg/injection, schedule: Q01DX005 (ip), vehicle: saline with Tween-80).

On to `NC1=NS(=O)(=O)c2ccccc21`, for which the T/C under setting [1] was 101 % of control, the T/C under setting [2] was 106 % of control and the T/C under setting [3] was 99 % of control.

Turning to `[CH3][Sn]([CH3])([Cl])[c]1cc[c]([Sn]([CH3])([CH3])[Cl])cc1`, the T/C (dose: 0.19 mg/kg/injection, schedule: Q01DX005 (ip), vehicle: suspension in saline) is 122 % of control; the T/C (dose: 0.39 mg/kg/injection, schedule: Q01DX005 (ip), vehicle: suspension in saline) was 115 % of control; the T/C (dose: 0.79 mg/kg/injection, schedule: Q01DX005 (ip), vehicle: saline) is 160 % of control; the T/C (dose: 3.12 mg/kg/injection, schedule: Q01DX005 (ip), vehicle: suspension in saline) is 154 % of control.

Take `COc1cc2c(cc1OC)C(=O)C(Br)CC2` (stereo not given): the T/C by setting is: under setting [6], 104 % of control; under setting [7], 113 % of control.

On to `CCCC(NC(=O)CNC(=O)OCc1ccccc1)C(=O)O` (stereo not drawn) (Cbz-Gly-[ξNva]-OH), for which the T/C runs as follows: (dose: 50.0 mg/kg/injection, schedule: Q01DX005 (ip), vehicle: Klucel (hydroxypropylcellulose) (HPC)) 104 % of control; (dose: 100.0 mg/kg/injection, schedule: Q01DX005 (ip), vehicle: Klucel (hydroxypropylcellulose) (HPC)) 98 % of control.

For the compound `Nc1ccc(C2NC(=O)Cc3ccccc32)cc1` (stereo not given), the T/C by setting is: under setting [8], 92 % of control; under setting [9], 90 % of control; under setting [10], 86 % of control.

Consider `O=c1[nH][nH]c2c(N=Cc3ccccc3O)ccc(F)c12`, for which the T/C was 108 % of control (dose: 50.0 mg/kg/injection, schedule: Q01DX005 (ip), vehicle: Klucel + Tween-80); 102 % of control (dose: 100.0 mg/kg/injection, schedule: Q01DX005 (ip), vehicle: Klucel + Tween-80); 108 % of control (dose: 200.0 mg/kg/injection, schedule: Q01DX005 (ip), vehicle: Klucel + Tween-80).

`CN1C(c2ccccc2)CC(=O)C(N)C1c1ccccc1` (stereo not given): the T/C runs as follows: (dose: 50.0 mg/kg/injection, schedule: Q01DX005 (ip), vehicle: distilled water + Tween-80) 92 % of control; (dose: 100.0 mg/kg/injection, schedule: Q01DX005 (ip), vehicle: distilled water + Tween-80) 90 % of control; (dose: 200.0 mg/kg/injection, schedule: Q01DX005 (ip), vehicle: distilled water + Tween-80) 92 % of control.

`CC1(C(N)C(=O)O)CC(Cl)=NO1` (stereo not given): the T/C was 108 % of control (dose: 4.0 mg/kg/injection, schedule: Q01DX009 (ip), vehicle: other); 103 % of control (dose: 8.0 mg/kg/injection, schedule: Q01DX009 (ip), vehicle: other); 100 % of control (dose: 16.0 mg/kg/injection, schedule: Q01DX009 (ip), vehicle: other); 103 % of control (dose: 32.0 mg/kg/injection, schedule: Q01DX009 (ip), vehicle: other); 103 % of control (dose: 64.0 mg/kg/injection, schedule: Q01DX009 (ip), vehicle: other); 94 % of control (dose: 128.0 mg/kg/injection, schedule: Q01DX009 (ip), vehicle: other).

Values taken from PubChem BioAssay AID330 (DTP/NCI, 2004).
